According to patent US8758730B2, “Compositions, use and method for the use of surface active proteins in topical drug delivery across keratin” (B.R.A.I.N. Biotechnology Research and Information Network AG, priority 2009, dated 2014):

Assays:
[1] = type: in vitro ADME
Source text: A formulation with one enhancer, Trichoderma reesei hydrophobin HFBII (isolation see […]., Aro, […]. and […]. 1997, Differential expression of the vegetative and spore-bound hydrophobins of Tricoderma reesei, Cloning and characterization of the hfb2 gene. Eur. J. […] As ethanol is a potential solvent for substances poorly soluble in water and prevents from microbiological growth, a better or a similar permeability is desirable. […] With this caffeine-concentration the solution was nearly saturated. This was intended to achieve a faster steady state according to the highest concentration gradient possible. Phosphate buffered saline (PBS) was prepared with a pH of 7.4. Both pH and osmolality of PBS simulated in the Franz diffusion cell's acceptor chamber the physiological conditions of blood (a systemic buffer system). The water used for the formulations and PBS was freshly produced, double distilled and filtered. Healthy nails for the permeability experiments were obtained from the Institute of Anatomy of the University of Basel and from the Institute of Anatomy of the University of Freiburg, Germany. […] The concentrations of the samples were measured with UV-spectrophotometry. Flux and permeation coefficients were calculated with the values after 48 hours, as in this time a steady state was obtained.

[2] = Nail penetration study with Terbinafine (example 1a); type: in vitro ADME; details: reference solution: 10% (w/v) Terbinafine in 60% (v/v) ethanol/water, no hydrophobin; average of 3
Experimental: Healthy nails for the permeability experiments were obtained from the Institute of Anatomy of the University of Basel and from the Institute of Anatomy of the University of Freiburg, Germany. Franz Diffusion Cells (SES GmbH—Analysesysteme, Bechenheim, Germany) with a diffusion area of 0.785 cm^2 were used. […] Subsequently, they were mounted in the diffusion cells in an appropriate manner. The acceptor chamber below the nail was filled with 5 ml PBS. The formulation (400 μl) was applied onto the nail. In order to keep the temperature in the system constant, the glass cells were tempered by a water jacket kept at 32°. The acceptor chambers were stirred with a magnetic stirrer at 400 rpm. The openings for the formulations and the extensions for taking samples were covered with Parafilm (film comprising paraffin wax and polyethene; American National Can Company, USA). A sample of 400 μl was taken from each cell twice a day and replaced with the same amount of PBS warmed to 32° C. […] The concentrations of the samples were measured with UV-spectrophotometry. Flux and permeation coefficients were calculated with the values after 48 hours, as in this time a steady state was obtained. […]

[3] = tested on: cells in the skin model (EST-1000); type: cell-based; details: human, 48 h, 1 %
Experimental: Cytotoxicity of the test samples on the skin culture was determined by MTT-assay according to the instructions of the skin model provider. The viability of the cells in the skin model was not influenced by the solvents (50% ethanol, 0.002% SDS) as compared to cultures treated with PBS only. A viability of about 50% of that of the control cultures was observed when 1% caffeine or 1% caffeine/10 μg hydrophobin (SC3 or HFB II, respectively) were applied on the skin culture, showing that hydrophobin itself was not cytotoxic at a concentration of 200 μg/ml. The barrier function of the skin model is probably not influenced profoundly by the reduced viability of the cells, since the upper layer keratinocytes comprises non living cells.

[4] = type: in vitro ADME, human
Experimental: The penetration of caffeine through the skin was measured using a human epidermal skin model (EST-1000, Cell Systems, St. Katharinen, Germany). The in vitro model for human skin consists of a robust multilayer three-dimensional cell culture, which has been grown for 14 days and has skin-like properties. The cellular structure of EST-1000 resembles that of the natural epidermis showing a base membrane, proliferating keratinocytes and stratum corneum with an intact barrier function. The tissues were provided in cell culture inserts with a polycarbonate membrane with 0.63 cm^2 surface area and 0.4 μm pore size. The membranes were covered completely by the cells and show a matte white, dry surface after complete differentiation. The inserts were handled easily by the use of a sterile forceps. Upon delivery, the skin inserts were equilibrated by placing each insert into a well of a 6-well cell culture dish containing 1 ml of maintenance medium (provided by Cell Systems). After 4-12 hours of equilibration the test substance was applied on the dry surface of the skin model. Penetration of substances applied onto the surface of the skin culture through the skin model was measured by sampling the medium surrounding the insert and detecting the concentration of the test substance, here caffeine. […] Caffeine was purchased from Sigma and applied in a concentration of 10 mg/ml (1% w/v). […]

C[S+](C)[O-] [DMSO, dimethylsulfoxide]
Enhancement factor (EF) in 20% (v/v) EtOH/water [1]: 3.25

CN(C/C=C/C#CC(C)(C)C)Cc1cccc2ccccc12 [Terbinafine]
Cumulated amount of Terbinafine penetrated through nail after 10 days [2]: ~12 mg/cm2

Cn1c(=O)c2c(ncn2C)n(C)c1=O [caffeine]
Viability relative to control cultures (MTT) [3]: about 50%

B1: SC3: class I hydrophobin of 112 amino acids from Schizophyllum commune, accession P16933 (protein, UniProt P16933 25-136, looked up)
Class I hydrophobin SC3: GGHPGTTTPPVTTTVTVTTPPSTTTIAAGGTCTTGSLSCCNQVQSASSSPVTALLGLLGIVLSDLNVLVGISCSPLTVIGVGGSGCSAQTVCCENTQFNGLINIGCTPINIL
Enhancement of penetration of caffeine (1% w/v) through in vitro model of human skin [4]: up to 21.5%
